Test results taken from PubChem BioAssay AID248 (DTP/NCI, 2004).
Values joined by “and” are separate entries in the source; they are usually repeats but may differ in a detail not shown here. Identical values can stand only once. Toxic doses and inconclusive results are not listed. Cut-off read from the data, not from the text of the source: active = T/C of 150% or more; inactive = T/C below 125%.

Tested on: L1210 leukemia ip in BDF1 mice, survival T/C
Test: NCI In Vivo Anticancer Drug Screen. Data for tumor model L1210 Leukemia (intraperitoneal) in B6D2F1 (BDF1) mice
Conditions: endpoint: mean survival time, higher = longer survival
Method in brief: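 Read-out is survival time, reported as the treated-group measurement over the vehicle-control measurement.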

[1] = dose: 12.5 mg/kg/injection, schedule: Q04DX003 (ip), vehicle: Klucel (hydroxypropylcellulose) (HPC)
[2] = dose: 25.0 mg/kg/injection, schedule: Q04DX003 (ip), vehicle: Klucel (hydroxypropylcellulose) (HPC)
[3] = dose: 50.0 mg/kg/injection, schedule: Q04DX003 (ip), vehicle: Klucel (hydroxypropylcellulose) (HPC)
[4] = dose: 100.0 mg/kg/injection, schedule: Q04DX003 (ip), vehicle: saline with Tween-80
[5] = dose: 200.0 mg/kg/injection, schedule: Q04DX003 (ip), vehicle: saline with Tween-80
[6] = dose: 400.0 mg/kg/injection, schedule: Q04DX003 (ip), vehicle: saline with Tween-80
[7] = dose: 100.0 mg/kg/injection, schedule: Q04DX003 (ip), vehicle: saline
[8] = dose: 200.0 mg/kg/injection, schedule: Q04DX003 (ip), vehicle: saline
[9] = dose: 100.0 mg/kg/injection, schedule: Q04DX003 (ip), vehicle: Klucel (hydroxypropylcellulose) (HPC)
[10] = dose: 200.0 mg/kg/injection, schedule: Q04DX003 (ip), vehicle: Klucel (hydroxypropylcellulose) (HPC)
[11] = dose: 400.0 mg/kg/injection, schedule: Q04DX003 (ip), vehicle: Klucel (hydroxypropylcellulose) (HPC)
[12] = dose: 100.0 mg/kg/injection, schedule: Q04DX002 (ip), vehicle: saline with Tween-80
[13] = dose: 200.0 mg/kg/injection, schedule: Q04DX002 (ip), vehicle: saline with Tween-80
[14] = dose: 400.0 mg/kg/injection, schedule: Q04DX002 (ip), vehicle: saline with Tween-80
[15] = dose: 50.0 mg/kg/injection, schedule: Q04DX002 (ip), vehicle: saline with Tween-80
[16] = dose: 100.0 mg/kg/injection, schedule: Q01DX001 (ip), vehicle: saline
[17] = dose: 200.0 mg/kg/injection, schedule: Q01DX001 (ip), vehicle: saline
[18] = dose: 400.0 mg/kg/injection, schedule: Q01DX001 (ip), vehicle: saline
[19] = dose: 100.0 mg/kg/injection, schedule: Q04DX002 (ip), vehicle: Klucel (hydroxypropylcellulose) (HPC)
[20] = dose: 200.0 mg/kg/injection, schedule: Q04DX002 (ip), vehicle: Klucel (hydroxypropylcellulose) (HPC)
[21] = dose: 100.0 mg/kg/injection, schedule: Q01DX001 (ip), vehicle: carboxymethylcellulose (CMC)
[22] = dose: 200.0 mg/kg/injection, schedule: Q01DX001 (ip), vehicle: carboxymethylcellulose (CMC)
[23] = dose: 400.0 mg/kg/injection, schedule: Q01DX001 (ip), vehicle: carboxymethylcellulose (CMC)
[24] = dose: 100.0 mg/kg/injection, schedule: Q01DX009 (ip), vehicle: saline with Tween-80

Measured: T/C

CC(C)/C=C(\C#N)C(=O)O
inactive: [1] 97 % of control | dose: 25.0 mg/kg/injection, schedule: Q01DX009 (ip), vehicle: Klucel (hydroxypropylcellulose) (HPC) 95 % of control | [2] 101 % of control | dose: 50.0 mg/kg/injection, schedule: Q01DX009 (ip), vehicle: Klucel (hydroxypropylcellulose) (HPC) 95 % of control | [3] 98 % of control

CC(=O)OC1C=C2CCC3C(CC(=O)C4(C)C3CC3OC34C(C)=O)C2(C)CC1 (stereo unspecified)
inactive: dose: 12.5 mg/kg/injection, schedule: Q04DX002 (ip), vehicle: saline 98 % of control | dose: 25.0 mg/kg/injection, schedule: Q04DX002 (ip), vehicle: saline 102 % of control | dose: 50.0 mg/kg/injection, schedule: Q04DX002 (ip), vehicle: saline 109 % of control

COc1ccc(OCC(O)CN2CCN(c3ccc(Cl)cc3)CC2)cc1 (stereo unspecified)
inactive: [4] 93 % of control | [5] 90 % of control | [6] 98 % of control

CC(=O)/C=C(/C)O
inactive: [7] 100 % of control | [8] 118 % of control

COC1OC(CO)C(O)C(N)C1O (stereo unspecified)
inactive: [7] 109 % of control | [8] 98 % of control

Clc1cccc(NCCc2ccccc2)c1
inactive: [9] 94 % of control | [10] 94 % of control | [11] 102 % of control

CN(C)c1ccc(C=NCCCO)cc1
inactive: [12] 92 % of control | [13] 103 % of control

Oc1c(-c2ccccn2)cccc1C(F)(F)F
inactive: [1] 98 % of control | [2] 102 % of control | [3] 100 % of control

CN1C(=O)CCN(CCCN2CCC(=O)N(C)C2=S)C1=S
inactive: [12] 95 % of control | [13] 95 % of control | [14] 88 % of control

NCC(=O)N/C(=C/c1ccccc1)C(=O)NCC(=O)O
inactive: [12] 97 % of control | [13] 97 % of control | [14] 97 % of control

Cc1nc(N)nc(C)c1N=Nc1ccc(Br)cc1
inactive: dose: 100.0 mg/kg/injection, schedule: Q04DX003 (ip), vehicle: other 90 % of control | dose: 200.0 mg/kg/injection, schedule: Q04DX003 (ip), vehicle: other 102 % of control | dose: 400.0 mg/kg/injection, schedule: Q04DX003 (ip), vehicle: other 100 % of control

C#CP(CCCC)CCCC
inactive: dose: 25.0 mg/kg/injection, schedule: Q04DX002 (ip), vehicle: saline with Tween-80 97 % of control | [15] 91 % of control | [12] 95 % of control and 102 % of control

O=C(Oc1ccccc1I)c1cc(I)c(I)c(I)c1
inactive: [9] 92 % of control | [11] 94 % of control

CN(C)/N=C/c1ccccc1C(=O)O
inactive: dose: 50.0 mg/kg/injection, schedule: Q04DX003 (ip), vehicle: saline with Tween-80 101 % of control | [4] 97 % of control | [5] 96 % of control | [6] 106 % of control

CC(=O)Nc1ccc(S(=O)(=O)O)c(OC(C)=O)c1
inactive: [16] 100 % of control | [17] 93 % of control | [18] 114 % of control

CC(C)(c1ccccc1)C(C)(C)c1ccccc1
inactive: dose: 100.0 mg/kg/injection, schedule: Q01DX009 (ip), vehicle: Klucel (hydroxypropylcellulose) (HPC) 91 % of control | [9] 92 % of control | [10] 96 % of control | dose: 400.0 mg/kg/injection, schedule: Q01DX009 (ip), vehicle: Klucel (hydroxypropylcellulose) (HPC) 89 % of control | [11] 96 % of control

O=C(Cc1cnccn1)c1ccc(C(=O)Cc2cnccn2)cc1
inactive: dose: 100.0 mg/kg/injection, schedule: Q04DX003 (ip), vehicle: carboxymethylcellulose (CMC) 94 % of control | dose: 200.0 mg/kg/injection, schedule: Q04DX003 (ip), vehicle: carboxymethylcellulose (CMC) 103 % of control | dose: 400.0 mg/kg/injection, schedule: Q04DX003 (ip), vehicle: carboxymethylcellulose (CMC) 102 % of control

Nc1nncc(-c2cnnc(N)n2)n1
inactive: dose: 50.0 mg/kg/injection, schedule: Q04DX002 (ip), vehicle: Klucel (hydroxypropylcellulose) (HPC) 111 % of control | [19] 104 % of control | [20] 111 % of control

CCOC(=O)C(C)C(=O)c1ccccc1 (stereo unspecified)
inactive: dose: 50.0 mg/kg/injection, schedule: Q01DX001 (ip), vehicle: carboxymethylcellulose (CMC) 107 % of control | [21] 102 % of control | [16] 95 % of control | dose: 100.0 mg/kg/injection, schedule: Q01DX009 (ip), vehicle: acetone 96 % of control | [22] 107 % of control | [17] 94 % of control | dose: 200.0 mg/kg/injection, schedule: Q01DX009 (ip), vehicle: acetone 93 % of control | [23] 107 % of control | [18] 94 % of control | dose: 400.0 mg/kg/injection, schedule: Q01DX009 (ip), vehicle: acetone 98 % of control

CC(C)CC(C=O)(CCN1CCCCC1)c1cccc2ccccc12 (stereo unspecified)
inactive: [12] 87 % of control and 88 % of control | dose: 100.0 mg/kg/injection, schedule: Q04DX002 (ip), vehicle: saline 98 % of control | [13] 94 % of control and 91 % of control | dose: 200.0 mg/kg/injection, schedule: Q04DX002 (ip), vehicle: saline 91 % of control | [14] 91 % of control

Nc1ccc(CC2=C(Br)CNC(=O)N2)cc1
inactive: dose: 100.0 mg/kg/injection, schedule: Q01DX001 (ip), vehicle: Klucel (hydroxypropylcellulose) (HPC) 102 % of control | dose: 200.0 mg/kg/injection, schedule: Q01DX001 (ip), vehicle: Klucel (hydroxypropylcellulose) (HPC) 103 % of control

O=C(Nc1ccc(Cl)cc1)Nc1ccc(Cl)c(C(F)(F)F)c1
inactive: [21] 108 % of control | [22] 111 % of control | [23] 111 % of control

Cc1cc2c(cc1C)N(C(=O)CCl)CC(=O)N2
inactive: dose: 9.37 mg/kg/injection, schedule: Q01DX009 (ip), vehicle: acetone 95 % of control | dose: 18.75 mg/kg/injection, schedule: Q01DX009 (ip), vehicle: acetone 93 % of control | dose: 18.75 mg/kg/injection, schedule: Q04DX003 (ip), vehicle: saline 96 % of control | dose: 37.5 mg/kg/injection, schedule: Q01DX009 (ip), vehicle: acetone 93 % of control | dose: 37.5 mg/kg/injection, schedule: Q04DX003 (ip), vehicle: saline 98 % of control | dose: 75.0 mg/kg/injection, schedule: Q01DX001 (ip), vehicle: saline 113 % of control | dose: 75.0 mg/kg/injection, schedule: Q04DX003 (ip), vehicle: saline 93 % of control

C1=C(c2ccccc2)N(Cc2ccccc2)C(c2ccccc2)=CN1Cc1ccccc1
inactive: [15] 105 % of control | [19] 107 % of control | [12] 96 % of control | [20] 96 % of control | [13] 96 % of control | dose: 400.0 mg/kg/injection, schedule: Q04DX002 (ip), vehicle: Klucel (hydroxypropylcellulose) (HPC) 111 % of control

O=C/C=C/c1ccc([N+](=O)[O-])cc1
inactive: [16] 104 % of control | [24] 98 % of control | [17] 102 % of control | [18] 102 % of control

CC(=O)CCCOc1ccc([N+](=O)[O-])cc1
inactive: [16] 98 % of control | [17] 98 % of control | [18] 101 % of control

Cc1c(C)c(C)c(C(=O)O)c(C)c1C
inactive: dose: 50.0 mg/kg/injection, schedule: Q01DX009 (ip), vehicle: saline with Tween-80 93 % of control | [24] 90 % of control | dose: 200.0 mg/kg/injection, schedule: Q01DX009 (ip), vehicle: saline with Tween-80 93 % of control

Cc1ccc([As](=O)(O)O)cc1F
inactive: dose: 1.56 mg/kg/injection, schedule: Q01DX009 (ip), vehicle: Klucel (hydroxypropylcellulose) (HPC) 94 % of control | dose: 3.13 mg/kg/injection, schedule: Q01DX009 (ip), vehicle: Klucel (hydroxypropylcellulose) (HPC) 94 % of control | dose: 6.25 mg/kg/injection, schedule: Q01DX009 (ip), vehicle: Klucel (hydroxypropylcellulose) (HPC) 88 % of control
